In US20240293558A1, “KRAS INHIBITOR CONJUGATES” (Erasca, Inc., priority 2021, published 2024):
Where two headings read alike, the source gives them in different places.

Tests used:
KRAS G12D = KRAS G12D (Homo sapiens, UniProt P01116, G12D); assay: In-vitro RAS-RAF binding assay (RRB), HTRF/FRET; assay type: biochemical; design: Biotinylated KRAS protein amino acids 1-169 (produced at Erasca); made in house; conditions: read-out: Inhibition of RAS-RAF Binding (in-vitro) KRAS (G12D) IC50
Method in brief: (§1)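 Compounds preincubated with terbium-labelled biotinylated KRAS (aa 1-169, 30 nM) before 60 min SOS1-catalysed exchange to GTPgS. Binding of the d2-labelled cRAF RBD (30 nM) is read as FRET at equilibrium in duplicate. Buffer: 50 mM HEPES pH 7.5, 100 mM NaCl, 1 mM MgCl2, 1 mM DTT.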

KRAS (WT) = biological target: T1, KRAS (WT) (Homo sapiens, UniProt P01116); assay: In-vitro RAS-RAF binding assay (RRB), HTRF/FRET; assay type: biochemical; conditions: read-out: Inhibition of RAS-RAF Binding (in-vitro) KRAS (WT) IC50
T1 construct: Biotinylated KRAS protein amino acids 1-169 (produced at Erasca); made in house
T1 sequence (P01116 1-169 isoform P01116-2): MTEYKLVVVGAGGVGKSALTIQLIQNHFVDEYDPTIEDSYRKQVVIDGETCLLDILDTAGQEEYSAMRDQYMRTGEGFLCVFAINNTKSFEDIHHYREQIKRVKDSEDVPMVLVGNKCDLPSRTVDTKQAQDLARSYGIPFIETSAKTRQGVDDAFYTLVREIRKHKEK
Method in brief: as §1

[1] = biological target: T2, KRas G12D fused to HiBiT peptide (Homo sapiens, UniProt P01116, G12D); assay: ASPC-1 HiBit assay to determine G12D degradation; assay type: cell-based; conditions: AsPC-1 HiBiT cells, 24-hour incubation; read-out: ASPC-1 HiBit DC50 (C)
T2 construct: endogenous in cells; host or cells: AsPC-1 HiBiT knock-in single clone (Cas9 RNP + ssODN)
T2 sequence (P01116 1-188 isoform P01116-2 G12D): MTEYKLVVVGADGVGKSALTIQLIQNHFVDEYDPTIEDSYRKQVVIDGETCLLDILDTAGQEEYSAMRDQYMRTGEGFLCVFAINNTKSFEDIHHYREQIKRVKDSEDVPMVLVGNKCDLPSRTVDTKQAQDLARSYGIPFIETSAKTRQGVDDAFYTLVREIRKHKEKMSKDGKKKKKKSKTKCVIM
Method in brief: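 Homozygous AsPC-1 clone with N-terminal HiBiT knock-in on endogenous KRas G12D, 24 h compound exposure, top dose 10 μM, 3-fold, 10 points, 1% DMSO. Lytic HiBiT luminescence normalised to DMSO and inhibitor controls gives % degradation; DC50 from 4-parameter fit after hook-effect points removed.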

[2] = Table 2, average of multiple runs of each compound

Chain of KRAS G12D (P01116 1-169 isoform P01116-2 G12D): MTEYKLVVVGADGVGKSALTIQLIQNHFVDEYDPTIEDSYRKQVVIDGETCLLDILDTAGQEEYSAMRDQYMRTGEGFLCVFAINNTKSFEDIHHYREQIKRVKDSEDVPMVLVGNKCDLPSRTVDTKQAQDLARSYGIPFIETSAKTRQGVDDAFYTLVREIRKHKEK

Structure (SMILES) | IC50 (KRAS G12D; Table 1) [µM] | IC50 (KRAS G12D; [2]) [µM] | IC50 (KRAS (WT); Table 1) [µM] | IC50 (KRAS (WT); [2]) [µM] | DC50 [1] [µM]
CC(C)[C@@H](C(=O)N1C[C@H](O)C[C@H]1C(=O)N[C@@H](C)c1ccc(-c2c(F)cc(F)cc2F)cc1)c1cc(N2CC3(CCN(CCOc4nc(N5CC6CCC(C5)N6)c5cc(Cl)c(-c6ccc(F)c7sc(N)c(C#N)c67)c(F)c5n4)CC3)C2)no1 [Example 68, (2S,4R)-1-((2R)-2-(3-(7-(2-((7-(2-amino-3-cyano-7-fluorobenzo[b]thiophen-4-yl)-4-(3,8-diazabicyclo[3.2.1]octan-3-yl)-6-chloro-8-fluoroquinazolin-2-yl)oxy)ethyl)-2,7-diazaspiro[3.5]nonan-2-yl)isoxazol-5-yl)-3-methylbutanoyl)-4-hydroxy-N-((S)-1-(2′,4′,6′-trifluoro-[1,1′-biphenyl]-4-yl)ethyl)pyrrolidine-2-carboxamide] |  | 0.0193 |  | > 10 | 1.28
CC(C)[C@@H](C(=O)N1C[C@H](O)C[C@H]1C(=O)N[C@@H](C)c1ccc(-c2c(F)cc(F)cc2F)cc1)c1cc(OCC2(F)CCN(CCOc3nc(N4CC5CCC(C4)N5)c4cc(Cl)c(-c5ccc(F)c6sc(N)c(C#N)c56)c(F)c4n3)CC2)no1 [Example 69, (2S,4R)-1-((2R)-2-(3-((1-(2-((7-(2-amino-3-cyano-7-fluorobenzo[b]thiophen-4-yl)-4-(3,8-diazabicyclo[3.2.1]octan-3-yl)-6-chloro-8-fluoroquinazolin-2-yl)oxy)ethyl)-4-fluoropiperidin-4-yl)methoxy)isoxazol-5-yl)-3-methylbutanoyl)-4-hydroxy-N-((S)-1-(2′,4′,6′-trifluoro-[1,1′-biphenyl]-4-yl)ethyl)pyrrolidine-2-carboxamide] |  | 0.0352 |  | > 10 | 0.525
CC(C)[C@@H](C(=O)N1C[C@H](O)C[C@H]1C(=O)N[C@@H](C)c1ccc(-c2c(F)cccc2F)cc1)c1cc(N2CC3(CCN(CCOc4nc(N5CC6CCC(C5)N6)c5cc(Cl)c(-c6ccc(F)c7sc(N)c(C#N)c67)c(F)c5n4)CC3)C2)no1 [Example 70, (2S,4R)-1-((2R)-2-(3-(7-(2-((7-(2-amino-3-cyano-7-fluorobenzo[b]thiophen-4-yl)-4-(3,8-diazabicyclo[3.2.1]octan-3-yl)-6-chloro-8-fluoroquinazolin-2-yl)oxy)ethyl)-2,7-diazaspiro [3.5]nonan-2-yl)isoxazol-5-yl)-3-methylbutanoyl)-N-((S)-1-(2′,6′-difluoro-[1,1′-biphenyl]-4-yl)ethyl)-4-hydroxypyrrolidine-2-carboxamide] |  | 0.0286 |  | 5.5 | 0.501
C#Cc1c(F)ccc2cc(O)cc(-c3ncc4c(N5CC6CCC(C5)N6)nc(OC[C@@H]5CCCN5CCCOCCC(=O)N[C@H](C(=O)N5C[C@H](O)C[C@H]5C(=O)N[C@@H](C)c5ccc(-c6c(F)cccc6F)cc5)C(C)(C)C)nc4c3F)c12 [Example 14, (2S,4R)-1-[(2S)-2-[3-[3-[(2S)-2-[[4-(3,8-diazabicyclo[3.2.1]octan-3-yl)-7-(8-ethynyl-7-fluoro-3-hydroxy-1-naphthyl)-8-fluoro-pyrido[4,3-d]pyrimidin-2-yl]oxymethyl]pyrrolidin-1-yl]propoxy]propanoylamino]-3,3-dimethyl-butanoyl]-N-[(1S)-1-[4-(2,6-difluorophenyl)phenyl]ethyl]-4-hydroxy-pyrrolidine-2-carboxamide] | 0.0094 | 0.0094 | 0.0419 | 0.0419 | 0.331
C#Cc1c(F)ccc2cc(O)cc(-c3ncc4c(N5CC6CCC(C5)N6)nc(OC[C@@H]5CCCN5CCCOCCC(=O)N[C@H](C(=O)N5C[C@H](O)C[C@H]5C(=O)N[C@@H](C)c5ccc(-c6scnc6C)cc5)C(C)(C)C)nc4c3F)c12 [Example 13, (2S,4R)-1-[(2S)-2-[3-[3-[(2S)-2-[[4-(3,8-diazabicyclo[3.2.1]octan-3-yl)-7-(8-ethynyl-7-fluoro-3-hydroxy-1-naphthyl)-8-fluoro-pyrido[4,3-d]pyrimidin-2-yl]oxymethyl]pyrrolidin-1-yl]propoxy]propanoylamino]-3,3-dimethyl-butanoyl]-4-hydroxy-N-[(1S)-1-[4-(4-methylthiazol-5-yl)phenyl]ethyl]pyrrolidine-2-carboxamide] | 0.0136 | 0.0136 | 0.049 | 0.0491 | 0.444

The next lines start with the values.

IC50 (KRAS G12D; Table 1) [µM] | IC50 (KRAS G12D; [2]) [µM] | IC50 (KRAS (WT); Table 1) [µM] | IC50 (KRAS (WT); [2]) [µM] | DC50 [1] [µM] | Structure (SMILES)
0.0113 | 0.0112 | 0.0868 | 0.0868 | 0.0775 | C[C@H](NC(=O)[C@@H]1C[C@@H](O)CN1C(=O)[C@@H](NC(=O)CCOCCCN1CCCC1COc1nc(N2CC3CCC(C2)N3)c2cc(Cl)c(-c3ccc(F)c4sc(N)c(C#N)c34)c(F)c2n1)C(C)(C)C)c1ccc(-c2c(F)cccc2F)cc1 (stereo partly drawn) [Example 12, (2S,4R)-1-[(2S)-2-[3-[3-[2-[[7-(2-amino-3-cyano-7-fluoro-benzothiophen-4-yl)-6-chloro-4-(3,8-diazabicyclo[3.2.1]octan-3-yl)-8-fluoro-quinazolin-2-yl]oxymethyl]pyrrolidin-1-yl]propoxy]propanoylamino]-3,3-dimethyl-butanoyl]-N-[(1S)-1-[4-(2,6-difluorophenyl)phenyl]ethyl]-4-hydroxy-pyrrolidine-2-carboxamide]
 | 0.013 |  | 1.79 | 0.707 | C#Cc1c(F)ccc2cc(O)cc(-c3ncc4c(N5CC6CCC(C5)N6)nc(OCCN5CCC6(C5)CN(c5cc([C@H](C(=O)N7C[C@H](O)C[C@H]7C(=O)N[C@@H](C)c7ccc(-c8c(F)cccc8F)cc7)C(C)C)on5)C6)nc4c3F)c12 [Example 101, (2S,4R)-1-((2R)-2-(3-(6-(2-((4-(3,8-diazabicyclo[3.2.1]octan-3-yl)-7-(8-ethynyl-7-fluoro-3-hydroxynaphthalen-1-yl)-8-fluoropyrido[4,3-d]pyrimidin-2-yl)oxy)ethyl)-2,6-diazaspiro[3.4]octan-2-yl)isoxazol-5-yl)-3-methylbutanoyl)-N—((S)-1-(2′,6′-difluoro-[1,1′-biphenyl]-4-yl)ethyl)-4-hydroxypyrrolidine-2-carboxamide]
 | 0.0082 |  | 0.023 | 0.023 | Cc1ncsc1-c1ccc([C@H](C)NC(=O)[C@@H]2C[C@@H](O)CN2C(=O)[C@@H](NC(=O)CCOCCCN2CCC[C@H]2COc2nc(N3CC4CCC(C3)N4)c3cc(C(F)(F)F)c(-c4ccc(F)c5sc(N)c(C#N)c45)c(F)c3n2)C(C)(C)C)cc1 [Example 91, (2S,4R)-1-((2S)-2-(3-(3-((2S)-2-((((7S)-7-(2-amino-3-cyano-7-fluorobenzo[b]thiophen-4-yl)-4-(3,8-diazabicyclo[3.2.1]octan-3-yl)-8-fluoro-6-(trifluoromethyl)quinazolin-2-yl)oxy)methyl)pyrrolidin-1-yl)propoxy)propanamido)-3,3-dimethylbutanoyl)-4-hydroxy-N—((S)-1-(4-(4-methylthiazol-5-yl)phenyl)ethyl)pyrrolidine-2-carboxamide]
 | 0.0476 |  | > 10 | 0.349 | CC(C)[C@@H](C(=O)N1C[C@H](O)C[C@H]1C(=O)N[C@@H](C)c1ccc(-c2c(F)cccc2F)cc1)c1cc(OCC2(F)CCN(CCOc3nc(N4CC5CCC(C4)N5)c4cc(Cl)c(-c5ccc(F)c6sc(N)c(C#N)c56)c(F)c4n3)CC2)no1 [Example 73, (2S,4R)-1-((2R)-2-(3-((1-(2-((7-(2-amino-3-cyano-7-fluorobenzo[b]thiophen-4-yl)-4-(3,8-diazabicyclo[3.2.1]octan-3-yl)-6-chloro-8-fluoroquinazolin-2-yl)oxy)ethyl)-4-fluoropiperidin-4-yl)methoxy)isoxazol-5-yl)-3-methylbutanoyl)-N-((S)-1-(2′,6′-difluoro-[1,1′-biphenyl]-4-yl)ethyl)-4-hydroxypyrrolidine-2-carboxamide]
 | 0.00767 |  | 0.0777 | 0.0632 | C[C@H](NC(=O)[C@@H]1C[C@@H](O)CN1C(=O)[C@@H](NC(=O)CCOCCCN1CCCC1COc1nc(N2CC3CCC(C2)N3)c2cc(Cl)c(-c3ccc(F)c4sc(N)c(C#N)c34)c(F)c2n1)C(C)(C)C)c1ccc(-c2c(F)cccc2F)cc1 (stereo partly drawn) [Example 19, (2S,4R)-1-((2S)-2-(3-(3-((2S)-2-((((7R)-7-(2-amino-3-cyano-7-fluorobenzo[b]thiophen-4-yl)-4-(3,8-diazabicyclo[3.2.1]octan-3-yl)-6-chloro-8-fluoroquinazolin-2-yl)oxy)methyl)pyrrolidin-1-yl)propoxy)propanamido)-3,3-dimethylbutanoyl)-N—((S)-1-(2′,6′-difluoro-[1,1′-biphenyl]-4-yl)ethyl)-4-hydroxypyrrolidine-2-carboxamide]
